Structures are written as SMILES.

Data set [1] has as its target T1, human orexin type 2 receptor (Homo sapiens, UniProt O43614).
T1 construct: expressed in transfected cells
T1 sequence (O43614 1-444): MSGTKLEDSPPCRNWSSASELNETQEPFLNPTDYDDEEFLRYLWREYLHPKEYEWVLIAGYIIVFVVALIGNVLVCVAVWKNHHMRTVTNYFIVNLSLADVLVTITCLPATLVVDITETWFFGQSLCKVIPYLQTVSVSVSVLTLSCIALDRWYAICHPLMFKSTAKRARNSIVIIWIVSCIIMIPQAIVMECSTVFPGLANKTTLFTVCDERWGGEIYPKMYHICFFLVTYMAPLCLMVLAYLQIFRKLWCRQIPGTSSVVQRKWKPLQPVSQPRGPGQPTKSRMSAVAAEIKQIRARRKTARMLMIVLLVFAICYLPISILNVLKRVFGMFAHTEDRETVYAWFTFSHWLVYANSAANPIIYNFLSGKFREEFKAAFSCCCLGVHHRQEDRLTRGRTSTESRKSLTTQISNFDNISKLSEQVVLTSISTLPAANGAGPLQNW
The data set can be described thus: Measurement of orexin type 2 receptor agonist activity (calcium indicator fluorescence, CHO cells forcibly expressing human OX2 receptor). Type of data set: cell-based. To be noted: compound at 3 μM; 0% = DMSO, 100% = orexin A (human) 10 nM. The method, boiled down:
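Agonist response normalised between vehicle (0%) and orexin A at 10 nM final (100%), from kinetic Fluo-4 calcium signals recorded for about 2 min after compound addition. Cells: stable human OX2R CHO clone, dye-loaded 30 min at 37 °C plus 30 min at room temperature.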

Data set [2] is described as follows: Evaluation of microsome stability in human. To be noted: pH 7.4; in vitro intrinsic metabolic clearance; human liver microsomes 0.2 mg/mL, 1 μmol/L test compound, NADPH-generating system. Type of data set: in vitro ADME. On the procedure: Human liver microsomes were purchased from Xenotech, LLC (Lenexa, Kans.). An incubation mixture consisted of microsomes in 50 mmol/L KH2PO4—K2HPO4 phosphate buffer (pH 7.4) and 1 μmol/L test compound. The concentration of microsomal protein was 0.2 mg/mL. An NADPH-generating system (5 mmol/L MgCl2, 5 mmol/L glucose-6-phosphate, 0.5 mmol/L beta-NADP+ and 1.5 unit/mL glucose-6-phosphate dehydrogenase) was added to the incubation mixture with a half volume of the reaction mixture to initiate the enzyme reaction. The reaction was terminated 15 and 30 minutes after the initiation of the reaction by mixing the reaction mixture with acetonitrile, followed by centrifugation at 2500 rpm for 10 min. The supernatant was subjected to LC/MS/MS analysis. The metabolic rate constant was calculated as the slope of the remaining rate-time plot. The in vitro intrinsic metabolic clearance was calculated by dividing initial metabolic rate constant by microsomal protein in the incubation mixture.
Background: Liver microsomes are vesicles of endoplasmic reticulum, rich in cytochrome P450 enzymes.

In another data set the test system is cynomolgus monkeys. Description: Evaluation of wake-promoting effects in cynomolgus monkeys (EEG/EMG). Type of data set: in vivo, cynomolgus monkey. To be noted: Macaca fascicularis, po, time spent in wakefulness for 4 h after administration, read-out: Wakefulness time (% of vehicle treatment) (Mean); for response vs control in vivo at 3 mg/kg: 3 mg/kg p.o. at ZT12. The procedure: The wake-promoting effects were evaluated by measuring the electroencephalogram (EEG) and electromyogram (EMG) in cynomolgus monkeys. Under isoflurane anesthesia (1-5%, Pfizer Japan Inc., Tokyo, Japan), male cynomolgus monkeys (3-5 years old, Hamri Co., Ltd., Ibaraki, Japan) were surgically implanted with radio-telemetry transmitters (TL10M3-D70-EEE, Data Sciences International Inc., MN, USA). EEG electrodes were screwed into the skull at the parietal area. EMG electrodes were implanted on the cervical muscles. After the surgery, each monkey was given penicillin (100,000 units/head, i.m., Meiji Seika Pharma Co., Ltd., Tokyo, Japan), buprenorphine (0.02 mg/kg, i.m., Otsuka Pharmaceutical Co., Ltd., Tokyo, Japan) and prednisolone (1 mg/kg, s.c., Kyoritsu Seiyaku Co., Ltd., Tokyo, Japan) daily for one week. After at least a 1-month recovery period in home cages, the monkeys were habituated to the recording chamber placed in a soundproof room. EEG and EMG signals were recorded using the telemetry system (Dataquest ART software, Data Sciences International Inc., MN, USA) and the signals were analyzed using SleepSign software (Kissei Comtec Co., Ltd., Nagano, Japan). After confirming long sleep in dark phase in the experimental room, we used animals to examine the wake-promoting effect of compounds.
Oral test compounds (3 or 10 mg/kg) suspended in 0.5% methylcellulose aqueous solution, or vehicle (i.e., 0.5% methylcellulose aqueous solution) was administered orally (p.o.) to monkeys at zeitgeber time 12 (ZT12) in a volume of 5 mL/kg body weight in cross-over design or pre-post design (n=1-4). EEG and EMG recordings were performed for 4 h after the compound administration. The time spent in wakefulness for 4 h after administration (% of vehicle treatment) was calculated by using SleepSign.
Parenteral test compounds (0.1 or 0.3 mg/kg) dissolved in a mixed solution comprising 5% DMSO, 5% Cremophor EL, 20% PEG400 and 70% soluplus (1% (w/v)), or vehicle (i.e., a mixed solution comprising 5% DMSO, 5% Cremophor EL, 20% PEG400 and 70% soluplus (1% (w/v))) was administered subcutaneously (s.c.) to monkeys at ZT12 in a volume of 0.5 mL/kg body weight in a pre-post design (n=1-2). EEG and EMG recordings were performed for 4 h after the compound administration. The time spent in wakefulness for 4 h after administration (% of vehicle treatment) was calculated by using SleepSign.

Turning to `CS(=O)(=O)N[C@@H]1[C@H](Cc2cccc(-c3cc(F)cc(F)c3)c2F)N(C(=O)C23CC(C2)C3)CC1(F)F` [Example 87, N-{(2S,3R)-1-(bicyclo[1.1.1]pentane-1-carbonyl)-4,4-difluoro-2-[(2,3′,5′-trifluoro[1,1′-biphenyl]-3-yl)methyl]pyrrolidin-3-yl}methanesulfonamide], in data set [1], the “OX2R agonist activity (3 μM, %)” value came out at 93%. Besides, the microsomal CLint (in general, the capacity of the preparation to metabolise the compound, expressed as a volume cleared per time) at 1 μmol/L in data set [2] was 9 µL/min/mg. Further, the response vs control in vivo at 3 mg/kg in the data set on cynomolgus monkeys came out at 832%.

Turning to `CCS(=O)(=O)N[C@@H]1[C@H](Cc2cccc(-c3cccc(F)c3F)c2F)N(C(=O)C(C)(C)O)CC1(F)F` [Example 66, N-{(2S,3R)-4,4-difluoro-1-(2-hydroxy-2-methylpropanoyl)-2-[(2,2′,3′-trifluoro[1,1′-biphenyl]-3-yl)methyl]pyrrolidin-3-yl}ethanesulfonamide], the “OX2R agonist activity (3 μM, %)” value in data set [1] is 104%. In data set [2], the microsomal CLint at 1 μmol/L came to 61 µL/min/mg. Besides, in the data set with cynomolgus monkeys, the response vs control in vivo at 3 mg/kg worked out at 463%.

As to `CCS(=O)(=O)N[C@@H]1[C@H](Cc2cccc(-c3cccc(F)c3)c2F)N(C(=O)[C@H]2C[C@H](F)C2)CC1(F)F` [Example 225, N-[(2S,3R)-2-[(2,3′-difluoro[1,1′-biphenyl]-3-yl)methyl]-4,4-difluoro-1-((1r,3S)-3-fluorocyclobutane-1-carbonyl)pyrrolidin-3-yl]ethanesulfonamide], in data set [1], the “OX2R agonist activity (3 μM, %)” value came out at 96%. The microsomal CLint at 1 μmol/L in data set [2] was found to be 60 µL/min/mg. In the data set with cynomolgus monkeys, the response vs control in vivo at 3 mg/kg was found to be 318%.

Turning to `CCS(=O)(=O)N[C@@H]1[C@H](Cc2cccc(-c3ccccc3)c2F)N(C(=O)C(C)(C)O)CC1(F)F` [Example 5, N-[(2S,3R)-4,4-difluoro-2-[(2-fluoro[1,1′-biphenyl]-3-yl)methyl]-1-(2-hydroxy-2-methylpropanoyl)pyrrolidin-3-yl]ethanesulfonamide], the “OX2R agonist activity (3 μM, %)” value in data set [1] stood at 117%. This molecule gave a microsomal CLint at 1 μmol/L in data set [2] of 12 µL/min/mg. Besides, the response vs control in vivo at 10 mg/kg with cynomolgus monkeys (10 mg/kg p.o. at ZT12) was found to be 412%.

For the origin of these results see US20230040770A1, “HETEROCYCLIC COMPOUND AND USE THEREOF” (TAKEDA PHARMACEUTICAL COMPANY LIMITED, priority 2019, published 2023).
